Results: PMC9099842, “Isolation of Potato Endophytes and Screening of Chaetomium globosum Antimicrobial Genes” (International Journal of Molecular Sciences, 2022)
Ends that are not written are not given here.

Tests used:
[1] = test system: X. campestris pv. Holcicola; test: Minimum inhibitory concentration (MIC) assay; assay type: cell-based, Xanthomonas campestris pv. Holcicola; conditions: purified peptide, 96-well plate, LB, 28 °C, 12 h
Description: (§1) The indicator bacteria were inoculated in LB liquid medium (OD600 ≈ 0.8–1.0) and then diluted with the indicator bacteria (OD600 ≈ 0.02–0.05). After that, we added 40 μL of diluted indicator bacteria solution to 96-well titer plates. The AMPs were diluted through a series of concentration gradients, and then an equal volume of peptides was added to the above 96-well plate and incubated at 28 °C for 12 h. […] To determine the time-kill assay, the purified antimicrobial peptide concentration was adjusted to 2× MIC concentration, and then added to a 96-well plate in equal volume with the indicator bacteria, with at least 3 wells for each concentration. After mixing the liquid evenly, it was incubated at 28 °C for 2 h, 4 h, 6 h, 8 h, 10 h, 12 h, and 24 h, and then the OD value was obtained at 600 nm.

C. fangii [2] = test: Minimum inhibitory concentration (MIC) assay; assay type: cell-based, Clavibacter fangii; conditions: purified peptide, 96-well plate, LB, 28 °C, 12 h
Description: as §1

X. oryzae pv. oryzae [3] = assay type: cell-based, Xanthomonas oryzae pv. oryzae; conditions: 20 μL extracellular peptides on filter paper, 28 °C, 5-7 h, mean ± SD, three independent experiments
[4] = test system: Xanthomonas campestris pv. Holcicola; assay type: cell-based
[5] = test system: Gram-negative bacteria and Gram-positive bacteria; test: MIC assay, range over all tested strains; assay type: cell-based; conditions: purified peptide, 96-well plate, 28 °C, 12 h; range over Gram-negative and Gram-positive strains of Table 4
Description: as §1

X. oryzae pv. oryzicola [6] = assay type: cell-based, Xanthomonas oryzae pv. oryzicola; conditions: purified peptide, 96-well plate, LB, 28 °C, 12 h
C. michiganensis [7] = test: Pathogenicity assay (control effect on tomato plants); assay type: in vivo, Clavibacter michiganensis; conditions: stem acupuncture inoculation of C. michiganensis mixed with equal volume of peptide at 2× MIC, greenhouse, at 7 d; for Disease Index: letters = differences at p < 0.05; for Control Efficacy (%): relative to PBS buffer group
Description: C. michiganensis was cultured to the logarithmic growth phase, then the pathogenic bacteria were mixed with an equal volume of antimicrobial peptides at 2× MIC, and finally tomato plants were inoculated using the stem acupuncture method. The positive control was mixed with an equal volume of polymyxin B and pathogenic bacteria, and the negative control was mixed with an equal volume of PBS buffer and pathogenic bacteria. After inoculation, the tomato plants were cultured under greenhouse conditions, and the disease incidence was observed and recorded. The equation of disease grading criteria, incidence rate, and disease index are found in Supplementary Method S5. […]
Peptide purification procedure
B. subtilis was grown in 300 mL liquid LB medium containing kanamycin (10 mg/L) and incubated at 180 r/min, 37 °C for 72 h. The supernatant was collected by centrifugation at […]
10,000× g for 25 min at 4°C. […]
Pathogenecity assay equation
C. michiganensis disease grading criteria are as follows, grade 0: no wilting or stem necrosis of leaves (or cotyledons); grade 1: mild yellowing or wilting of leaves (or cotyledons); grade 2: moderate wilting or wilting of leaves (or cotyledons) and mild necrosis of stem; Grade 3: severe wilting of leaves (or cotyledons) or severe necrosis of stem; Grade 4: plant death. The formulas for incidence rate, disease index and control efficacy are as follows: Incidence rate

C. michiganensis [8] = test: Minimum inhibitory concentration (MIC) assay; assay type: cell-based, Clavibacter michiganensis; conditions: purified peptide, 96-well plate, LB, 28 °C, 12 h
Description: as §1

X. oryzae pv. oryzae [9] = assay type: cell-based, Xanthomonas oryzae pv. oryzae; conditions: X. oryzae pv. oryzae co-incubated with peptide 2 h at 28 °C; MIC concentration
X. oryzae pv. oryzae [10] = assay type: cell-based, Xanthomonas oryzae pv. oryzae; conditions: purified peptide, 96-well plate, LB, 28 °C, 12 h
C. michiganensis [11] = assay type: cell-based, Clavibacter michiganensis
[12] = test system: four tested strains (C. fangii, X. oryzae pv. oryzicola, X. oryzae pv. oryzae, C. michiganensis); assay type: cell-based; conditions: peptides at their MICs, 28 °C, OD 600 nm; after 12 h of treatment
B. cinerea = assay type: cell-based, Botrytis cinerea
[13] = test system: Gram-positive and Gram-negative bacteria; assay type: physicochemical
[14] = test system: C. michiganensis, C. fangii, X. oryzae pv. oryzae and X. oryzae pv. oryzicola; assay type: physicochemical; conditions: read-out agar diffusion test; for antibacterial activity after heat treatment (thermal stability), 4–75 °C: heated 30 min at 25, 50, 75 °C (4 °C control); for antibacterial activity after heat treatment (thermal stability), 100 °C: heated at 100 °C for 30 min
C. fangii [15] = assay type: cell-based, Clavibacter fangii
R. solani = assay type: cell-based, Rhizoctonia solani
porcine erythrocytes = conditions: 5× MIC, 37 °C, 1 h, absorbance 385 nm, 0.1% Triton X-100 = 100%, PBS = 0%
C. michiganensis [16] = assay type: cell-based, Clavibacter michiganensis; remark: listed apart in the source
F. graminearum = assay type: cell-based, Fusarium graminearum; conditions: 200 μL extracellular peptide per well, 28 °C, 2–4 days, vs PBS
X. oryzae pv. oryzicola [17] = assay type: cell-based, Xanthomonas oryzae pv. oryzicola; conditions: 20 μL extracellular peptides on filter paper, 28 °C, 5-7 h, mean ± SD, three independent experiments

Substance	antimicrobial diameter (bacteriostatic spectrum) (X. oryzae pv. oryzae [3])	inhibition of bacterial growth (in words) [4]	Incidence (%) (C. michiganensis [7])	Disease Index (C. michiganensis [7])	Control Efficacy (%) (C. michiganensis [7])	cell membrane damage by SEM (X. oryzae pv. oryzae [9])	cell membrane damage by SEM (C. michiganensis [11])	bacterial growth in time-kill curve [12]	inhibition of mycelia growth (in words) (B. cinerea)	antibacterial activity after UV treatment (UV stability) [13]	antibacterial activity after heat treatment (thermal stability), 4–75 °C [14]	antibacterial activity after heat treatment (thermal stability), 100 °C [14]	antimicrobial diameter (bacteriostatic spectrum) (C. fangii [15])	inhibition of mycelia growth (in words) (R. solani)	antimicrobial diameter (bacteriostatic spectrum) (C. michiganensis [16])	inhibition of mycelia growth (in words) (F. graminearum)	antimicrobial diameter (bacteriostatic spectrum) (X. oryzae pv. oryzicola [17])	further results
LAVHHLHSIRGRHHSCTIAQTQANHRHNSYQPNNSSCLAKETDLPTTRSTPATTSSTAPARKSPPASPAPTRQRLCPSPPRGPVSSRHPRRRGQARGRTRAAGVRRTKGYGGKCV [CgR2150, 115-residue antimicrobial peptide from C. globosum cDNA library, expressed and secreted by B. subtilis SCK6]	1.39 ± 0.036 cm	significantly inhibit the growth	13.33 c %	5.83	92.56 b %	significantly shrunken and morphologically abnormal	severely damaged, with obvious gaps and ruptures	hardly grew	significantly inhibit the mycelia growth	stable bacteriostatic activity	obvious antibacterial activity	lost their activity	1.21 ± 0.037 cm	significantly inhibit the mycelia growth	1.19 ± 0.033 cm	significantly inhibit the mycelia growth	1.29 ± 0.034 cm	MIC [1]: 25 µg/mL; MIC (C. fangii [2]): 15 µg/mL; MIC, range over the five tested bacteria [5]: 10 to 25 µg/mL; MIC (X. oryzae pv. oryzicola [6]): 10 µg/mL; MIC (C. michiganensis [8]): 18 µg/mL; MIC (X. oryzae pv. oryzae [10]): 10 µg/mL; hemolytic activity (porcine erythrocytes): 0.32%
LAVPNFEPPTRTTCPAPTSPGNPCGPPPPASQTRRPPFHPTSPLRR (cysteines drawn unpaired) [CgR3101]	1.19 ± 0.036 cm	significantly inhibit the growth	16.67 b %	7.50 b	90.43 c %	significantly shrunken and morphologically abnormal	severely damaged, with obvious gaps and ruptures	hardly grew	significantly inhibit the mycelia growth	stable bacteriostatic activity	obvious antibacterial activity	lost their activity	1.15 ± 0.029 cm	significantly inhibit the mycelia growth	1.04 ± 0.033 cm	significantly inhibit the mycelia growth	1.26 ± 0.024 cm	–
Polymyxin B [reference compound]	–	–	10.00 d %	3.33 c	95.75 a %	–	–	–	–	–	–	–	–	–	–	–	–	–
